System: Eschericia coli strain ATCC25922
Experiment: standard microdilution assay to determine minimum inhibitory concentrations (MICs)
Format: cell-based
Settings: Escherichia coli, ATCC25922, Eschericia coli strain ATCC25922, standard microdilution assay; read-out: E. coli ATCC25922 MIC
Protocol: Minimum inhibitory concentrations (MICs) are determined by the microdilution method, typically in a final volume of 100 microliters, according to protocols outlined by The Clinical and Laboratory Standards Institute [CLSI; formerly the National Committee for Clinical Laboratory Standards (NCCLS)]. See CLSI: Methods for dilution antimicrobial susceptibility tests for bacteria that grow aerobically; approved standard-fifth edition. Wayne, Pa.: NCCLS; 2000. The assays can be also be performed in microtiter trays according to conventional methodologies as published by the CLSI. See CLSI. Methods for Dilution Antimicrobial Susceptibility Tests for Bacteria That Grow Aerobically; Approved Standard-Seventh Edition. CLSI Document M7-A7 [ISBN 1-56238-587-9] CLSI, 940 West Valley Road, Suite 1400, Wayne Pa. 19087-1898 USA, 2006).
The compounds of the present invention were tested for antimicrobial activity. The compounds were run against Eschericia coli strain ATCC25922 using a standard microdilution assay to determine minimum inhibitory concentrations (MICs). […] A “N/A” means that data is unavailable. It will be recognized by one skilled in the art that the compounds can be assessed against other bacterial organisms and that the presentation of data for activity against Eschericia coli is illustrative and in no way is intended to limit the scope of the present invention. The compounds of the present invention can be assayed against a range of other microorganisms depending upon the performance activity desired to be gathered. Furthermore, the “+”, “−”, and “N/A” representation and the selection of a cutoff value of 16 micrograms/ml is also illustrative and in no way is intended to limit the scope of the present invention.

Compound | MIC
Cc1[nH]c(NC(=O)Nc2ccccc2OC(F)(F)F)nc(=O)c1CC(=O)N1CCN(CCCN)CC1 [Compound 406] | > 16 mg/L
NCCC[C@H](N)CCCn1ccc(N)nc1=O [Compound 116] | > 16 mg/L
CN(CCCN(CCCN)Cc1ccc(-c2c[nH]c(NC(=O)Nc3cc(F)c(F)cc3F)nc2=O)cc1)C(=N)N [Compound 366] | > 16 mg/L
N=C(N)NCCCN(CCCN)Cc1ccc(-c2c[nH]c(NC(=O)NCCc3ccc(Cl)cc3Cl)nc2=O)cc1 [Compound 476] | > 16 mg/L
NCCCN(CCCN)Cc1ccc(-c2c[nH]c(NC(=O)Nc3ccc(F)c(F)c3)nc2=O)cc1 [Compound 171] | > 16 mg/L
O=C(Nc1nc(=O)c(-c2ccc(CNCCc3c[nH]c(=O)[nH]3)cc2)c[nH]1)Nc1ccccc1OC(F)(F)F [Compound 448] | > 16 mg/L
N#Cc1ccc(NC(=O)Nc2nc(=O)c(-c3ccc(CNCCCN)c(F)c3)c[nH]2)cc1 [Compound 386] | > 16 mg/L
NCCCNCc1ccc(-c2c[nH]c(NC(=O)NC3CN(Cc4cc(F)c(F)cc4F)C3)nc2=O)cc1 [Compound 710] | > 16 mg/L
NC(=O)Nc1ccn(CCC[C@@H](N)CCCO)c(=O)n1 [Compound 123] | > 16 mg/L
COc1ccc([N+](=O)[O-])cc1NC(=O)Nc1nc(=O)c(-c2ccc(CNCCCN)c(F)c2)c[nH]1 [Compound 416] | > 16 mg/L
NCCCN1CCN(CCc2c[nH]c(NC(=O)Nc3ccccc3OC(F)(F)F)nc2=O)CC1 [Compound 369] | > 16 mg/L
CN(C(=O)C[C@H](CCCNC(=N)N)NC(=O)CCCN)C1CNC(NC(N)=O)=NC1=O (stereo partly shown) [Compound 102] | > 16 mg/L
NCc1ccc(-c2c[nH]c(NC(=O)Nc3ccccc3OC(F)(F)F)nc2=O)cc1F [Compound 247] | > 16 mg/L
NCCCN(CCCN)Cc1ccc(-c2c[nH]c(NC(=O)Cc3ccc(C(F)(F)F)cc3)nc2=O)cc1 [Compound 205] | > 16 mg/L
N=C(N)NCCCN1CCCN(c2c[nH]c(NC(=O)Nc3ccccc3OC(F)(F)F)nc2=O)CC1 [Compound 491] | > 16 mg/L
O=C(Nc1nc(=O)c(-c2ccc(CNCc3nccs3)cc2)c[nH]1)Nc1cc(F)c(F)cc1F [Compound 330] | > 16 mg/L
NCCCN(CCCN)Cc1ccc(-c2c[nH]c(NC(=O)Nc3cc(F)c(F)cc3F)nc2=O)cc1 [Compound 178] | > 16 mg/L
Cn1ccnc1CN(CCCN)Cc1ccc(-c2c[nH]c(NC(=O)Nc3cc(F)c(F)cc3F)nc2=O)cc1 [Compound 336] | > 16 mg/L
N=C(N)NCC(NCCCN)c1ccc(-n2ccc(NC(N)=O)nc2=O)cc1 (stereo not shown) [Compound 156] | > 16 mg/L
N=C(N)NCCCCCN1CCC(c2c[nH]c(Nc3nc4ccccc4[nH]3)nc2=O)CC1 [Compound 503] | > 16 mg/L
NCCCN(CCCN)Cc1ccc(-c2c[nH]c(Nc3nc4cc(C(F)(F)F)cc(Cl)c4o3)nc2=O)cc1F [Compound 403] | > 16 mg/L

Compound | MIC
Cc1ccc(NC(=O)Nc2nc(=O)c(-c3ccc(CNCCCN)c(F)c3)c[nH]2)cc1C(F)(F)F [Compound 481] | > 16 mg/L
NCCCNCc1ccc(-c2c[nH]c(Nc3ccc(C(F)(F)F)cc3)nc2=O)cc1 [Compound 487] | > 16 mg/L
NCCCNCc1ccc(-c2c[nH]c(NC(=O)Nc3ccc(F)c(C(F)(F)F)c3)nc2=O)cc1F [Compound 413] | > 16 mg/L
N=C(N)NCCC[C@H](N)CC(=O)N(CCCc1cocn1)C1CNC(NC(N)=O)=NC1=O (stereo partly shown) [Compound 112] | > 16 mg/L
NC(=O)NC1CCN(CCC[C@@H](N)CCCO)C(=O)N1 (stereo partly shown) [Compound 136] | > 16 mg/L
O=C(Nc1nc(=O)c(-c2ccc(CNCC3CC3)cc2)c[nH]1)Nc1ccccc1OC(F)(F)F [Compound 274] | > 16 mg/L
CN(C)C(=O)CN1CCN(c2ccc(NC(=O)Nc3nc(=O)c(-c4ccc(CN(CCCN)CCCN)cc4)c[nH]3)cc2)CC1 [Compound 211] | > 16 mg/L
N[C@@H]1CCN(C(=O)Cc2c[nH]c(NC(=O)Nc3ccccc3OC(F)(F)F)nc2=O)C1 [Compound 410] | > 16 mg/L
NCCCN(CCCN)Cc1ccc(-c2c[nH]c(NC(N)=O)nc2=O)cc1 [Compound 149] | > 16 mg/L
Cc1nc(-c2cccc(NC(=O)Nc3ccn(CCC[C@H](CCCNC(=N)N)NCCCN)c(=O)n3)c2)cs1 [Compound 166] | > 16 mg/L
N=C(N)NCCCN(CCCN)Cc1ccc(-c2c[nH]c(Nc3ccc(C(F)(F)F)cc3)nc2=O)cc1F [Compound 490] | > 16 mg/L
N=C(N)NCCCCCN1CCC(c2c[nH]c(NC(=O)Nc3ccccc3OC(F)(F)F)nc2=O)CC1 [Compound 584] | > 16 mg/L
NCCCNCc1ccc(-c2c[nH]c(NC(=O)NCc3ccc(F)cc3)nc2=O)cc1F [Compound 255] | > 16 mg/L
NCCCNCc1ccc(-c2c[nH]c(NC(=O)Nc3cc([N+](=O)[O-])ccc3Cl)nc2=O)cc1F [Compound 457] | > 16 mg/L
NCCCN[C@H]1CCN(C(=O)Cc2c[nH]c(NC(=O)Nc3ccccc3OC(F)(F)F)nc2=O)C1 [Compound 407] | > 16 mg/L
O=C(NCc1ccc(F)cc1)Nc1nc(=O)c(-c2ccc(CNCCCF)c(Cl)c2)c[nH]1 [Compound 257] | > 16 mg/L
NCCCN1CCN(c2c[nH]c(NC(=O)Nc3ccccc3OC(F)(F)F)nc2=O)CC1 [Compound 425] | > 16 mg/L
NCCCN1CC2(CCN(c3c[nH]c(NC(=O)Nc4ccccc4OC(F)(F)F)nc3=O)C2)C1 [Compound 527] | > 16 mg/L
N=C(N)NCCCN1CC2(CCN(c3c[nH]c(NC(=O)Nc4ccccc4OC(F)(F)F)nc3=O)CC2)C1 [Compound 484] | > 16 mg/L
N=C(N)NCCCCN1CCC(c2c[nH]c(NC(=O)Nc3cc(F)c(F)cc3F)nc2=O)CC1 [Compound 546] | > 16 mg/L
NCCCNCc1ccc(-c2c[nH]c(NC(=O)Nc3cc(Cl)cc(Cl)c3)nc2=O)cc1F [Compound 387] | > 16 mg/L

Further lines, results first:

MIC | Compound
> 16 mg/L | NCCCN(CCCN)Cc1c(F)cc(-c2c[nH]c(NC(=O)Nc3cc(F)c(F)cc3F)nc2=O)cc1F [Compound 295]
< 16 mg/L | NCCCNCc1ccc(-c2c[nH]c(Nc3nc4cc(F)c(F)cc4o3)nc2=O)cc1 [Compound 454]
> 16 mg/L | N=C(N)NCCCN1CCN(c2c[nH]c(NC(=O)Nc3ccccc3OC(F)(F)F)nc2=O)CC1 [Compound 422]
> 16 mg/L | O=C(Nc1nc(=O)c(-c2ccc(CNCc3ncc[nH]3)cc2)c[nH]1)Nc1cc(F)c(F)cc1F [Compound 313]
> 16 mg/L | N=C(N)NCCC[C@@H](CCCn1ccc(NC(=O)c2ccc(Cl)cc2)nc1=O)NCCCN [Compound 155]
> 16 mg/L | NC(=O)NCCCNCc1ccc(-c2c[nH]c(NC(=O)Nc3ccccc3OC(F)(F)F)nc2=O)cc1 [Compound 374]
< 16 mg/L | N=C(N)NCCCN(CCCN)Cc1ccc(-c2c[nH]c(NC(=O)Nc3ccccc3OC(F)(F)F)nc2=O)cc1 [Compound 349]
> 16 mg/L | NCCCNCc1ccc(-c2c[nH]c(NC(=O)Nc3c(Cl)cc(Cl)cc3Cl)nc2=O)cc1F [Compound 461]
< 16 mg/L | NCCCN(CCCN)Cc1ccc(-c2c[nH]c(Nc3nc4cc(F)c(F)cc4o3)nc2=O)cc1 [Compound 470]
> 16 mg/L | N=C(N)NCCCN(CCCN)Cc1ccc(-n2ccc(NC(=O)Nc3ccc(F)c(F)c3)nc2=O)cc1 [Compound 223]
> 16 mg/L | Cc1nc(-c2cnccn2)sc1C(=O)Nc1ccn(CCC[C@H](CCCNC(=N)N)NCCCN)c(=O)n1 [Compound 167]
> 16 mg/L | O=C(Nc1nc(=O)c(CCN2CCNCC2)c[nH]1)Nc1ccccc1OC(F)(F)F [Compound 368]
> 16 mg/L | CCS(=O)(=O)c1ccc2oc(Nc3nc(=O)c(-c4ccc(CN(CCCN)CCCN)c(F)c4)c[nH]3)nc2c1 [Compound 427]
< 16 mg/L | CC(C)=CCN(CCCN)Cc1ccc(-c2c[nH]c(NC(=O)Nc3ccccc3OC(F)(F)F)nc2=O)cc1 [Compound 304]
< 16 mg/L | NCCCN(CCCO)Cc1ccc(-c2c[nH]c(NC(=O)Nc3ccccc3OC(F)(F)F)nc2=O)cc1 [Compound 324]
< 16 mg/L | NCCCNCc1ccc(-c2c[nH]c(NC(=O)Nc3ccc(C(F)(F)F)cc3Cl)nc2=O)cc1F [Compound 419]
< 16 mg/L | CN1CCN(c2ccc(C(=O)Nc3ccn(CCC[C@H](CCCNC(=N)N)NCCCN)c(=O)n3)cc2)CC1 [Compound 190]
< 16 mg/L | NCCCN(CCCN)Cc1ccc(-c2c[nH]c(NC(=O)Nc3ccc(C(F)(F)F)cc3)nc2=O)cc1 [Compound 172]
< 16 mg/L | Cn1ncc(C(=O)Nc2ccn(CCC[C@H](CCCNC(=N)N)NCCCN)c(=O)n2)c1Cl [Compound 163]
< 16 mg/L | NCCCNCc1ccc(-c2c[nH]c(NC(=O)NCCc3ccc(Cl)cc3Cl)nc2=O)cc1F [Compound 420]
< 16 mg/L | NCCCN(CCCNC(N)=O)Cc1ccc(-c2c[nH]c(NC(=O)Nc3ccccc3OC(F)(F)F)nc2=O)cc1 [Compound 394]
< 16 mg/L | NCCCNCc1ccc(-c2c[nH]c(NC(=O)Nc3cccc(Cl)c3Cl)nc2=O)cc1Cl [Compound 243]
< 16 mg/L | NCCCNCc1ccc(-c2c[nH]c(NC(=O)NCCc3ccc(Cl)c(Cl)c3)nc2=O)cc1F [Compound 451]
< 16 mg/L | NCCCNCc1ccc(-c2c[nH]c(NC(=O)NCCCc3ccccc3OC(F)(F)F)nc2=O)cc1F [Compound 539]
< 16 mg/L | N=C(N)NCCCNCc1ccc(-c2c[nH]c(NC(=O)Nc3ccccc3OC(F)(F)F)nc2=O)cn1 [Compound 594]

From patent US9845297B2, “Antimicrobial compounds and methods of making and using the same” (Melinta Therapeutics, Inc., priority 2009, dated 2017)
